20 compounds from ChEMBL document CHEMBL5634071, “Fluorine in anti-HIV drugs approved by FDA from 1981 to 2023” (Eur J Med Chem, 2023) can be followed below.

The nature of series [1]: Cytotoxicity against human CEM cells. The class given is toxicity, cell-based. The following applies: CEM cells (CCRF-CEM).
Series [2] deals with Human immunodeficiency virus 1. Kind of series: Antiviral activity against HIV-1 LAV infected in human CEM cells. The class given is functional, organism-based. The settings on record: Human immunodeficiency virus 1, LAV, CCRF-CEM.
For another series, the target named is hERG (Homo sapiens, UniProt Q12809). Kind of series: Inhibition of tritium labelled dofetilide binding to hERG expressed in HEK293 cells at 300 nM relative to control. The class given is toxicity, cell-based. The settings on record: HEK293 cells that express hERG, probe tritium labelled dofetilide. In general terms: hERG is a cardiac potassium channel; its block is linked to QT prolongation.
Sequence of hERG (Q12809 whole entry): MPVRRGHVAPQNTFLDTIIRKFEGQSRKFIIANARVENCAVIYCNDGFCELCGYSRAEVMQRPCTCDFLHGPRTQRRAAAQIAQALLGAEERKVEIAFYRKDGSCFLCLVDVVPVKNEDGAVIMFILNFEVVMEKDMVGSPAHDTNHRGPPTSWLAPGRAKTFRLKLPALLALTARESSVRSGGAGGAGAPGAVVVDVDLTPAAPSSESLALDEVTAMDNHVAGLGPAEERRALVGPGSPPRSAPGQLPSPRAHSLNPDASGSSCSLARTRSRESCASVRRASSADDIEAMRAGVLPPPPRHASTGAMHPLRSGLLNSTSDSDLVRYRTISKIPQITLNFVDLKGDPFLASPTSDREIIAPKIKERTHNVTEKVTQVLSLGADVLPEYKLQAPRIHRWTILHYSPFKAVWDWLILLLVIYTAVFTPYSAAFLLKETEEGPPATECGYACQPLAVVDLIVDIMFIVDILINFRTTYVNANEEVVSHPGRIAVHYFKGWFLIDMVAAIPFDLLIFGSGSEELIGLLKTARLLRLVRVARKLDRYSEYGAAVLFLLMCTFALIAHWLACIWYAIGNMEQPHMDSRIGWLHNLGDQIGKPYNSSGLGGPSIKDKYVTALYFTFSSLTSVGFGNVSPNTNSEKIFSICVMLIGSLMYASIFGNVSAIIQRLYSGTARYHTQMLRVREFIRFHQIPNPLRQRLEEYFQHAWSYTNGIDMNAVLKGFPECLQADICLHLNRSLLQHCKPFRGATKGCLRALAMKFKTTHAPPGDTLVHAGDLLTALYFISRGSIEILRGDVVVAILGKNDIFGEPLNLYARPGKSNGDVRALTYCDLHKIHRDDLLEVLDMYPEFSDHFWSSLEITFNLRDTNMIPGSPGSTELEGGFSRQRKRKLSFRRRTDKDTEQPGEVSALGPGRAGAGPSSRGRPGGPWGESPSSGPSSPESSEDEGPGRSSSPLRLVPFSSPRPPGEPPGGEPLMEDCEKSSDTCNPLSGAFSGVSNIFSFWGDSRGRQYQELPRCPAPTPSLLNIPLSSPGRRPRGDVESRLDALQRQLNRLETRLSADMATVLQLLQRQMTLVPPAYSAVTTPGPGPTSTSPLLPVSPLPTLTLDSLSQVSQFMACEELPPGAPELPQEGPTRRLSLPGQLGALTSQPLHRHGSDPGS

The test system of series [3] is Human immunodeficiency virus. Kind of series: Antiviral activity agaisnt HIV BAL infected in human PM1 cells assessed as inhibition of viral replication. In kind it is functional, organism-based. The following applies: Human immunodeficiency virus 1, BAL.
The target of series [4] is Human immunodeficiency virus type 1 protease (Human immunodeficiency virus 1, UniProt Q72874). Kind of series: Inhibition of HIV-1 protease.
In series [5] the test system is Human immunodeficiency virus 1. Kind of series: Antiviral activity against HIV-1 IIIB infected in human H9 cells. In kind it is functional, organism-based. The following applies: Human immunodeficiency virus 1, IIIB.
Series [6] deals with Human immunodeficiency virus 1. Kind of series: Antiviral activity against HIV-1 infected in PBMC (unknown origin) assessed as inhibition of viral replication by ELISA. The following applies: Human immunodeficiency virus 1, PBMC. In kind it is functional, organism-based.
Series [7] is described as follows: Inhibition of wildtype HIV Reverse transcriptase. Further details: species or system Human immunodeficiency virus.
In series [8] the test system is Human immunodeficiency virus 1. Kind of series: Antiviral activity against HIV-1 NL4-3 infected in human MT4 cells assessed as reduction in virus induced cytopathic effect by XTT assay. The class given is functional, organism-based. The following applies: Human immunodeficiency virus 1, NL4-3, MT4. (Damage to the host cells serves as the signal in cytopathic effect assays.)

Series [9] has as its system Human immunodeficiency virus 1. Kind of series: Antiviral activity against HIV-1 RF infected in human MT4 cells assessed as reduction in viral RNA production measured after 3 days by plaque assay. The class given is functional. The following applies: Human immunodeficiency virus 1, RF, MT4, 72 h; time 3 day.
The target in series [10] is C-C chemokine receptor type 5 (Homo sapiens, UniProt P51681). Kind of series: Displacement of [125I]MIP-1alpha from CCR5 receptor (unknown origin) expressed in HEK293 cells. In kind it is cell-based. On the technique in general: Loss of bound radioactivity is the signal in a displacement assay; it reports binding, not function.
Sequence of C-C chemokine receptor type 5 (P51681 whole entry): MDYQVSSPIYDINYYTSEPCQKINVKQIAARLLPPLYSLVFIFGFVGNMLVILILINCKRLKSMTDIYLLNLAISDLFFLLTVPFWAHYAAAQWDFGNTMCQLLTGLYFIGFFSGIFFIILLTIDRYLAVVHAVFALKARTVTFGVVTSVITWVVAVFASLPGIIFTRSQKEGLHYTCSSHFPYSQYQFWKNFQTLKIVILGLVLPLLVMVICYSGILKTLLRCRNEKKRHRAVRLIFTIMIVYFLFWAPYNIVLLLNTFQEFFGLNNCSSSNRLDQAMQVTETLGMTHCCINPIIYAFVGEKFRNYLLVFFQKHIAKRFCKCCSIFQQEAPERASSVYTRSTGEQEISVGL
The nature of series [11]: Inhibition of HIV integrase. Set-up: species or system Human immunodeficiency virus.
Series [12] has as its system Human immunodeficiency virus 1. Kind of series: Antiviral activity against NNRTI-resistant HIV-1 harboring K103N mutant assessed as inhibition of viral growth. In kind it is functional.
Series [13] concerns Human immunodeficiency virus 1. Kind of series: Antiviral activity against NNRTI-resistant HIV-1 harboring K103N/Y181C double mutant assessed as inhibition of viral growth. In kind it is functional.
The test system of series [14] is Human immunodeficiency virus 1. Kind of series: Antiviral activity against NNRTI-resistant HIV-1 harboring Y181C mutant assessed as inhibition of viral growth. The class given is functional.
Series [15] in a line: Half-life in human administered as single dose. In kind it is ADME.
In series [16] the target is T1, DNA polymerase subunit gamma-1 (Homo sapiens) (UniProt P54098).
T1 sequence (whole entry): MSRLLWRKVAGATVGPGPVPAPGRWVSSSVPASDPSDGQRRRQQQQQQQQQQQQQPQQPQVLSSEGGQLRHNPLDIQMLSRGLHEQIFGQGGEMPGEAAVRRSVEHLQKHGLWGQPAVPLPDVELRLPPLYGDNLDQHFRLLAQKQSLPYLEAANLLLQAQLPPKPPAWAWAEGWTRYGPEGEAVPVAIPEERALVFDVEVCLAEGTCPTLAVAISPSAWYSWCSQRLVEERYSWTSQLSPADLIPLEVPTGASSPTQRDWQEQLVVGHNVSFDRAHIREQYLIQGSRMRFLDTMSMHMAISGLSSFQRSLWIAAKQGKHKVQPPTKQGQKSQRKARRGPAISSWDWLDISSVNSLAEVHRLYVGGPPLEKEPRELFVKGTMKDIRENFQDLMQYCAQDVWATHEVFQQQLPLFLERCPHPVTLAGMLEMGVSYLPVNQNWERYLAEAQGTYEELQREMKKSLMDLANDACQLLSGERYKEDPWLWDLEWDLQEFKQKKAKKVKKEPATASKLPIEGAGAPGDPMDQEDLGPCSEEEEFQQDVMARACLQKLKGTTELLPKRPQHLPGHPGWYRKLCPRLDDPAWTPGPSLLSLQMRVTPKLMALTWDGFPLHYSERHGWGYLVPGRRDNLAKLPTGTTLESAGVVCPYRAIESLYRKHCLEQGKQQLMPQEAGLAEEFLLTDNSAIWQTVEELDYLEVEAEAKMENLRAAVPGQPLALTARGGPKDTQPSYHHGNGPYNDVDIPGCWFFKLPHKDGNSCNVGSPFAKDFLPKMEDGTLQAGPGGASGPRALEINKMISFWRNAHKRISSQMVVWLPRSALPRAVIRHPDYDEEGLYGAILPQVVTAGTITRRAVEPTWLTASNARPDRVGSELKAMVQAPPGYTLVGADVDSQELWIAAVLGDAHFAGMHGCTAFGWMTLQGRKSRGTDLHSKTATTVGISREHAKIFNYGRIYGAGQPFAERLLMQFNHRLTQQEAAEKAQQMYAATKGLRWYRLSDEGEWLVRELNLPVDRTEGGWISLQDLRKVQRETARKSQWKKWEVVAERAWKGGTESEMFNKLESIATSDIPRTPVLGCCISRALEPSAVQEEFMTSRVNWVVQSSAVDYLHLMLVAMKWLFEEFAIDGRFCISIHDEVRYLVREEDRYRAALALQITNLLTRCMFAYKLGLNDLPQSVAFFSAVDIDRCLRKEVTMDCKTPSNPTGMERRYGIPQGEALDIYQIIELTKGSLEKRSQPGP
Kind of series: Binding affinity to human DNA polymerase gamma assessed as polymerization rate.

Series [17] addresses T2, DNA polymerase subunit gamma-1 (Homo sapiens, UniProt P54098).
T2 sequence (P54098 whole entry): T1 sequence (whole entry)
Kind of series: Binding affinity to human DNA polymerase gamma assessed as dissociation constant.

The target of series [18] is T1, DNA polymerase subunit gamma-1 (Homo sapiens). Kind of series: Ratio of K for biding affinity to human DNA polymerase gamma assessed as polymerization rate to Kd for binding affinity to human DNA polymerase gamma.

Usually CC50 stands for the concentration giving 50% cytotoxicity. Lower therefore signals greater toxicity to the cells. For orientation: IC50 means the concentration needed to halve the response being measured. For orientation: inhibition means the drop in the measured response relative to a control, in per cent. Read a low inhibition as a response near the control. What is called IC90 is the concentration needed for an effect of 90%. As usually defined, the Ki is the dissociation constant of the complex between target and ligand, obtained from inhibition or displacement. As usually defined, the IC95 is the concentration needed for an effect of 95%. As a reminder, the half-life is the time in which the quantity being followed falls by half. As usually defined, the Kd is the concentration at which binding is half-saturated.

On to `Nc1ccn([C@@H]2CS[C@H](CO)O2)c(=O)n1` [LAMIVUDINE], for which, in [1], the CC50 is > 100 µM. In addition, half-maximal inhibition in [2] (IC50) was put at 70 nM.
The like results for `Nc1ccn([C@H]2CS[C@@H](CO)O2)c(=O)n1` were, in that order, 2.7 µM and 100 nM.
On hERG, `Cc1nc2ccccc2n1C1C[C@H]2CC[C@@H](C1)N2CC[C@H](NC(=O)C1CCC1)c1ccccc1` (some centres undefined) came in with an inhibition at 0.3 µM of 80%. Further, in [3], the IC90 was 3 nM.
With `CCC[C@@]1(CCc2ccccc2)CC(O)=C([C@@H](CC)c2cccc(NS(=O)(=O)c3ccc(C#N)cn3)c2)C(=O)O1`, the Ki in series [4] was determined as 0.1 nM. In series [5], this compound showed an IC50 of 490 nM and an IC90 of 1000 nM.
On to `Cc1nnc(C(C)C)n1[C@H]1C[C@H]2CC[C@@H](C1)N2CC[C@H](NC(=O)C1CCC(F)(F)CC1)c1ccccc1` [MARAVIROC], for which, in series [3], the IC90 came out at 1 nM.
`Cc1cn([C@H]2C[C@H](N=[N+]=[N-])[C@@H](CO)O2)c(=O)[nH]c1=O` [ZIDOVUDINE]: the IC50 in [6] was 55 nM.
In the case of `NS(=O)(=O)c1ccc(NC(=O)COc2cccc(Oc3ccccc3)c2)c(Cl)c1`, the midpoint of inhibition in [7], the IC50, lay at 52 nM.
In series [4], `CCC[C@]1(CCc2ccccc2)CC(O)=C([C@@H](CC)c2cccc(NS(=O)(=O)c3ccc(C#N)cn3)c2)C(=O)O1` came in with a Ki of 0.12 nM. Moreover, in series [5], the IC50 was > 1000 nM and the IC90 is > 1000 nM.
Take `Cc1[nH]c2ccccc2c1CC(=O)N[C@@H](Cc1ccccc1)C(=O)N(C)c1ccccc1`: the IC50 in series [8] stood at 570 nM.
Consider `O=C1Nc2ccc(Cl)cc2[C@@](/C=C/C2CC2)(C(F)(F)F)N1`, for which the IC90 in series [9] came out at 2.1 nM.
On to `Cc1nc2ccccc2n1C1CCN(CCC(NC(=O)c2ccccc2)c2ccccc2)CC1` (centres undefined), for which the IC50 was 210 nM in series [3] and 45 nM in series [10].
`Nc1ccn([C@H]2CSC(CO)O2)c(=O)n1` (mixture of isomers) had a CC50 in [1] of 52.6 µM. For the same compound, the IC50 in [2] stood at 70 nM.
For `Cc1nc2ccccc2n1C1CCN(CC[C@H](NC(=O)c2ccccc2)c2ccccc2)CC1`, the IC50 in [10] worked out at 13 nM.
With `CN(C(=O)[C@@H](CCc1ccccc1)NC(=O)Cc1c[nH]c2ccccc12)c1ccccn1`, in series [8], the IC50 amounted to 4500 nM.
As for `O=C(/C=C(\O)c1nc[nH]n1)c1ccc(Cc2ccc(F)cc2)o1` [S-1360], the IC50 in series [11] is 20 nM.
With `O=C1Nc2ccc(Cl)cc2[C@@](C#CC2CC2)(C(F)(F)F)N1`, the IC90 in series [9] was found to be 2 nM.
Consider `Cn1c(Cn2ccc(C(F)(F)F)c(Oc3cc(Cl)cc(C#N)c3)c2=O)n[nH]c1=O` [DORAVIRINE], for which the IC95 in series [12] was 0.043 µM; in [13] it was 0.055 µM; in series [14], 0.027 µM.
For `O=C1Nc2ccc(Cl)cc2[C@@](C#CC2CC2)(C(F)(F)F)O1` [EFAVIRENZ], the IC90 in series [9] stood at 1.7 nM. For the same compound, the half-life in series [15] is < 2.17 days.
Consider `Nc1ccn([C@H]2C[C@H](O)[C@@H](COP(=O)(O)OP(=O)(O)OP(=O)(O)O)O2)c(=O)n1` [DEOXYCYTIDINE TRIPHOSPHATE], for which the K in series [16] worked out at 44 s⁻¹. For the same compound, the Kd in series [17] stood at 1100 nM. For the same compound, the Ratio in series [18] is 40 µM⁻¹ s⁻¹.
As for `O=c1[nH]cnc2c1ncn2[C@H]1CC[C@@H](CO)O1` [DIDANOSINE], the IC50 in series [6] amounted to 760 nM.
